{"source": "patent US6818637B2", "about": "“Polyhydroxypyrazine derivatives, their preparation and the pharmaceutical compositions which comprise them” (Aventis Pharma SA, priority 1999, dated 2004)", "tested_on": "hyperglycemic response to the oral administration of glucose", "experiment": "Inhibition of the hyperglycemic response to oral glucose in the normoglycemic mouse", "type": "in vivo, Swiss albino mice", "settings": "mice, administration at 3 mg/kg; reference 2-(1,2,3,4-tetrahydroxybutyl)-5-(2′,3′,4′-trihydroxybutyl)]pyrazine", "procedure": "The hypoglycemic activity of the products of formula (I) was determined with respect to the hyperglycemic response to the oral administration of glucose in the normoglycemic mouse, according to the protocol described in Example 3. Swiss albino mice weighing between 22 and 26 g are left without nourishment for 2 hours. At the end of this period, the glycemia is measured and, immediately after, a dose of glucose (2 g/kg) is administered orally. Thirty minutes later, the glycemia is once again measured. The mice which respond by a hyperglycemia greater than 170 mg/dl are selected and used to detect the hypoglycemic activity of the products according to the invention. The mice thus chosen are divided into groups of at least 10 animals. Several groups receive doses of 3 to 50 mg/kg of product in a vehicle, such as water or a mixture of methylcellulose/tween and water, once daily by gastric intubation. The treatment lasts 4 days. On the 4th day, after the final treatment, the animals receive a dose of glucose (2 g/kg) and the glycemia is measured 20 to 40 minutes later. The percentage of inhibition of the hyperglycemic response to the administration of glucose is calculated with respect to the response measured in the group treated with the vehicle.", "data": [{"smiles": "O=C(OC[C@@H](O)[C@@H](O)[C@H](O)c1cnc(C[C@H](O)[C@H](O)COC(=O)C2CCCCC2)cn1)C1CCCCC1", "note": "[Example 1, 4,4′-O,O-Dicyclohexyloyl-2-[(1R,2S,3R)(1,2,3,4-tetrahydroxylbutyl)]-5-[(2′S,3′R)(2′,3′,4′-trihydroxybutyl)]pyrazine]", "values": [{"measurement": "relative activity with respect to the reference product", "value": 149, "unit": "%"}]}]}
